{
  "source": "paper PMC4007625",
  "about": "“A phase I study of AST1306, a novel irreversible EGFR and HER2 kinase inhibitor, in patients with advanced solid tumors” (Journal of Hematology & Oncology, 2014)",
  "key": {"advanced solid tumors": {"tested_on": "advanced solid tumors", "assay": "Antitumor activity by RECIST 1.0", "assay_type": "in vivo, human", "description": "Antitumor activity was assessed by tumor measurements according to RECIST 1.0 and performed at 8-week intervals. The primary efficacy endpoint was progression free survival (PFS), which was defined as the time from the first administration until disease progression or death. Overall survival (OS) and response rate were also assessed. Clinical benefit rate was measured and defined as the proportion of patients with complete response, partial response and stable disease (SD) ≥ 6 months."}, "EGFR": {"tested_on": "EGFR", "design": "method as in PMID 21789172, PMID 18408761, PMID 15728811, PMID 15737014, PMID 17085664", "settings": "cited from earlier work"}, "[1]": {"assay": "Food-effect study, two-way crossover, single dose", "assay_type": "in vivo, human", "settings": "for apparent oral clearance (CL/F) / Tmax / AUC(0-inf) / AUC(0-t) / Cmax / half-life: 1000 mg single oral dose; for apparent oral clearance (CL/F) / AUC(0-inf) / AUC(0-t) / Cmax / half-life: geometric mean (range); for Tmax / AUC(0-inf) / AUC(0-t) / Cmax / half-life: plasma, po; for Tmax: (range); for half-life: read-out: t1/2z (converted)", "description": "Figure S1). On day 1, 6 subjects were fasted and 6 were fed, and all 12 subjects received a single dose of AST1306. […] On “fasting” days (day 1 or 4), subjects were required to fast for a minimum of 2 h prior to dosing, and for at least 1 h post-dosing. […] PK sampling then took place on day 1 and day 4. The PK sampling time points were pre-dose, 0.5, 1, 1.5, 2, 2.5, 3, 4, 6, 8, 12, and 24 hours after dosing. The power model method was used to assess the dose proportionality."}, "[2]": {"assay": "Phase I dose escalation: safety, tolerability, DLT and MTD (CTC-AE 4.03)", "assay_type": "in vivo", "description": "This was the first-in-human phase I dose-escalation study of AST1306 for patients with advanced solid tumors. AST1306 was orally administered without food for one day followed by two days off to evaluate single dose PK profiles. After that, it was continuously administered for 21 days and two days off to assess multiple dose PK profiles and safety. […] Three times daily in three dose levels (800 mg TID, 1000 mg TID and 1200 mg TID) were explored subsequently. Treatment was then repeated at the same dose level in 28-day cycles until unacceptable toxicities, disease progression or the patient’s withdrew from the study. PK extension study was performed to enroll additional patients up to at least eight patients per dose cohort in three dose levels (MTD, one or two doses level lower than the MTD) for further evaluation of PK profiles.\nSafety and tolerability were evaluated and assessed by investigators throughout the study and up to 14 days after the final dose of AST1306 according to Common Terminology Criteria for Adverse Events (CTC-AE) version 4.03. Laboratory evaluations and electrocardiogram were conducted at screening; every week of first and second cycles; every two weeks of third cycle and every four weeks of subsequent cycles. AEs assessment, vital signs, physical examinations and echocardiography were performed.\nA modified Fibonacci 3 plus 3 dose-escalation design was employed. Tolerability was evaluated according to the type and frequency of DLTs observed from single-day-dose administration until day 21 of the first cycle of continuous dosing. DLTs were defined as follows: grade ≥ 3 non-hematologic toxicity (except nausea, vomiting and diarrhea); grade ≥ 3 nausea, vomiting or diarrhea uncontrollable with standard supportive care; grade 4 neutropenia or febrile neutropenia; and grade 4 thrombocytopenia or bleeding requiring a platelet transfusion. If two or more patients experienced DLTs in three to six patients for each cohort, dose escalation was terminated and the dose level below was defined as the MTD.\nDose interruptions were permitted for no more than 14 days for patients experiencing DLTs in the first cycle or intolerable toxicities in the subsequent cycles, with treatment resumed at the next lower dose level upon adequate recovery (grade ≤ 1). More than two dose level reductions were not allowed.\nPatients in the PK extension study and food-effect study were also included to evaluate safety further."}, "HER2": {"tested_on": "HER2", "design": "method as in PMID 21789172, PMID 18408761, PMID 15728811, PMID 15737014, PMID 17085664", "settings": "preclinical; read-out: IC50 inhibiting HER2; cited from earlier work"}, "[3]": {"settings": "human, 1000 mg, fed, high-fat breakfast (n =12)"}},
  "note": "Like-named read-outs stand apart in the source and are kept apart here.",
  "data": [
    {"smiles": "C=CC(=O)Nc1ccc2ncnc(Nc3ccc(OCc4cccc(F)c4)c(Cl)c3)c2c1", "note": "[AST1306]", "values": [
      {"measurement": "median OS", "setting": "advanced solid tumors; 12 NSCLC patients", "value": "not yet been reached"},
      {"measurement": "median PFS", "setting": "advanced solid tumors; 12 NSCLC patients", "value": 3.6, "unit": "months"},
      {"measurement": "median OS", "setting": "advanced solid tumors; 17 breast cancer patients", "value": "17.7 (95% CI, 16.1–19.3) months"},
      {"measurement": "median PFS", "setting": "advanced solid tumors; 17 breast cancer patients", "value": "5.5 (95% CI, 3.2–7.9) months"},
      {"measurement": "confirmed PR, % of patients", "setting": "advanced solid tumors; 55 evaluable patients", "value": 12.7, "unit": "%"},
      {"measurement": "confirmed partial responses, patients", "setting": "advanced solid tumors; 55 evaluable patients", "value": 7},
      {"measurement": "stable disease ≥ 6 months, patients", "setting": "advanced solid tumors; 55 evaluable patients", "value": 7},
      {"measurement": "confirmed PR, patients", "setting": "advanced solid tumors; NSCLC, 12 evaluable", "value": 1},
      {"measurement": "confirmed PR, patients", "setting": "advanced solid tumors; breast cancer, 17 evaluable, all responders HER2 positive", "value": 5},
      {"measurement": "confirmed PR, patients", "setting": "advanced solid tumors; gastric cancer", "value": 1},
      {"measurement": "fold more potent than afatinib and dacomitinib", "setting": "EGFR; EGFR and HER2 IC50", "value": "5-15 fold"},
      {"measurement": "IC50", "setting": "EGFR; preclinical, read-out: IC50 inhibiting EGFR", "value": 0.5, "unit": "nM"},
      {"measurement": "apparent oral clearance (CL/F)", "setting": "[1]; fasted (n =12)", "value": "3970 (1370-8890) L/h"},
      {"measurement": "apparent oral clearance (CL/F)", "setting": "[1]; fed, high-fat breakfast (n =12)", "value": "1360 (608-2340) L/h"},
      {"measurement": "Treatment ratio fed/fasted, AUC0-∞", "setting": "[1]; human, in vivo, 1000 mg", "value": "269 (208-348) %"},
      {"measurement": "Treatment ratio fed/fasted, AUC0–t", "setting": "[1]; human, in vivo, 1000 mg", "value": "284 (219-368) %"},
      {"measurement": "Treatment ratio fed/fasted, Cmax", "setting": "[1]; human, in vivo, 1000 mg", "value": "228 (170-305) %"},
      {"measurement": "Tmax", "setting": "[1]; human, 1000 mg, fasted (n =12)", "value": 2.38, "unit": "h"},
      {"measurement": "AUC(0-inf)", "setting": "[1]; human, 1000 mg, fasted (n =12)", "value": 331, "unit": "ng·h/mL"},
      {"measurement": "AUC(0-t)", "setting": "[1]; human, 1000 mg, fasted (n =12)", "value": 311, "unit": "ng·h/mL"},
      {"measurement": "Cmax", "setting": "[1]; human, 1000 mg, fasted (n =12)", "value": 70.3, "unit": "ng/mL"},
      {"measurement": "half-life", "setting": "[1]; human, 1000 mg, fasted (n =12)", "value": 6.99, "unit": "h"},
      {"measurement": "Tmax", "setting": "[1]; [3]", "value": 4.25, "unit": "h"},
      {"measurement": "AUC(0-inf)", "setting": "[1]; [3]", "value": 814, "unit": "ng·h/mL"},
      {"measurement": "AUC(0-t)", "setting": "[1]; [3]", "value": 797, "unit": "ng·h/mL"},
      {"measurement": "Cmax", "setting": "[1]; [3]", "value": 139, "unit": "ng/mL"},
      {"measurement": "half-life", "setting": "[1]; [3]", "value": 4.19, "unit": "h"},
      {"measurement": "MTD", "setting": "[2]; TID, continuous-dosing schedule, oral", "value": 1000, "unit": "mg"},
      {"measurement": "Anorexia grade 3, treatment-related AE, patients", "setting": "[2]; human, in vivo", "value": 0},
      {"measurement": "Fatigue grade 3, treatment-related AE, % of patients", "setting": "[2]; human, in vivo", "value": 0, "unit": "%"},
      {"measurement": "Fatigue grade 3, treatment-related AE, patients", "setting": "[2]; human, in vivo", "value": 0},
      {"measurement": "Hand-foot syndrome grade 3, treatment-related AE, % of patients", "setting": "[2]; human, in vivo", "value": 0, "unit": "%"},
      {"measurement": "Hand-foot syndrome grade 3, treatment-related AE, patients", "setting": "[2]; human, in vivo", "value": 0},
      {"measurement": "Proteinuria grade 3, treatment-related AE, % of patients", "setting": "[2]; human, in vivo", "value": 0, "unit": "%"},
      {"measurement": "Proteinuria grade 3, treatment-related AE, patients", "setting": "[2]; human, in vivo", "value": 0},
      {"measurement": "Vomiting grade 3, treatment-related AE, % of patients", "setting": "[2]; human, in vivo", "value": 0, "unit": "%"},
      {"measurement": "Vomiting grade 3, treatment-related AE, patients", "setting": "[2]; human, in vivo", "value": 0},
      {"measurement": "discontinuation from treatment due to diarrhea, % of patients", "setting": "[2]; human, in vivo", "value": 7, "unit": "%"},
      {"measurement": "discontinuation from treatment due to diarrhea, patients", "setting": "[2]; human, in vivo", "value": 5},
      {"measurement": "discontinuation from treatment due to hypokalemia, patients", "setting": "[2]; human, in vivo", "value": 1},
      {"measurement": "grade 3 drug-related abdominal pain, % of patients", "setting": "[2]; human, in vivo", "value": 1.4, "unit": "%"},
      {"measurement": "grade 3 drug-related abdominal pain, patients", "setting": "[2]; human, in vivo", "value": 1},
      {"measurement": "grade 3 drug-related anemia, % of patients", "setting": "[2]; human, in vivo", "value": 1.4, "unit": "%"},
      {"measurement": "grade 3 drug-related anemia, patients", "setting": "[2]; human, in vivo", "value": 1},
      {"measurement": "grade 3 drug-related diarrhea, % of patients", "setting": "[2]; human, in vivo", "value": 32.4, "unit": "%"},
      {"measurement": "grade 3 drug-related diarrhea, patients", "setting": "[2]; human, in vivo", "value": 23},
      {"measurement": "grade 3 drug-related elevated ALT or AST, % of patients", "setting": "[2]; human, in vivo", "value": 4.2, "unit": "%"},
      {"measurement": "grade 3 drug-related elevated ALT or AST, patients", "setting": "[2]; human, in vivo", "value": 3},
      {"measurement": "grade 3 drug-related hypokalemia, % of patients", "setting": "[2]; human, in vivo", "value": 1.4, "unit": "%"},
      {"measurement": "grade 3 drug-related hypokalemia, patients", "setting": "[2]; human, in vivo", "value": 1},
      {"measurement": "grade 3 drug-related rash, % of patients", "setting": "[2]; human, in vivo", "value": 1.4, "unit": "%"},
      {"measurement": "grade 3 drug-related rash, patients", "setting": "[2]; human, in vivo", "value": 1},
      {"measurement": "grade 3 study drug-related AEs, % of patients", "setting": "[2]; human, in vivo", "value": 39.4, "unit": "%"},
      {"measurement": "grade 3 study drug-related AEs, patients", "setting": "[2]; human, in vivo", "value": 28},
      {"measurement": "grade 4 to 5 AEs", "setting": "[2]; human, in vivo", "value": "no observed grade 4 to 5 AEs"},
      {"measurement": "patients with serious AEs (SAE)", "setting": "[2]; human, in vivo", "value": 8},
      {"measurement": "treatment-related diarrhea, % of patients", "setting": "[2]; human, in vivo", "value": 85.9, "unit": "%"},
      {"measurement": "treatment-related diarrhea, patients", "setting": "[2]; human, in vivo", "value": 61},
      {"measurement": "treatment-related fatigue, % of patients", "setting": "[2]; human, in vivo", "value": 19.7, "unit": "%"},
      {"measurement": "treatment-related fatigue, patients", "setting": "[2]; human, in vivo", "value": 14},
      {"measurement": "treatment-related rash, % of patients", "setting": "[2]; human, in vivo", "value": 16.9, "unit": "%"},
      {"measurement": "treatment-related rash, patients", "setting": "[2]; human, in vivo", "value": 12},
      {"measurement": "patients with DLT (grade 3 diarrhea)", "setting": "[2]; human, in vivo, 21 days", "value": 5},
      {"measurement": "recommended phase II dose (RP2D)", "setting": "[2]; human, in vivo, po, 21 days", "value": 1000, "unit": "mg"},
      {"measurement": "decline in LVEF", "setting": "[2]; in vivo", "value": "no significant decline in LVEF"},
      {"measurement": "patients with dose reductions (all due to diarrhea)", "setting": "[2]; in vivo", "value": "Seven"},
      {"measurement": "patients with study drug-related AEs", "setting": "[2]; in vivo", "value": "Sixty-eight"},
      {"measurement": "IC50", "setting": "HER2", "value": 3, "unit": "nM"}
    ]}
  ]
}
